Our source for the Kd values is paper PMC8225008, “Development of Non-Ethoxypropanoic Acid Type Cryptochrome Inhibitors with Circadian Molecular Clock-Enhancing Activity by Bioisosteric Replacement” (Pharmaceuticals, 2021).

This test addresses T1, hCRY2 (Homo sapiens, UniProt Q49AN0).
T1 construct: GST; purchased MyBioSource; host or cells: baculovirus expression system
T1 sequence (Q49AN0 1-593): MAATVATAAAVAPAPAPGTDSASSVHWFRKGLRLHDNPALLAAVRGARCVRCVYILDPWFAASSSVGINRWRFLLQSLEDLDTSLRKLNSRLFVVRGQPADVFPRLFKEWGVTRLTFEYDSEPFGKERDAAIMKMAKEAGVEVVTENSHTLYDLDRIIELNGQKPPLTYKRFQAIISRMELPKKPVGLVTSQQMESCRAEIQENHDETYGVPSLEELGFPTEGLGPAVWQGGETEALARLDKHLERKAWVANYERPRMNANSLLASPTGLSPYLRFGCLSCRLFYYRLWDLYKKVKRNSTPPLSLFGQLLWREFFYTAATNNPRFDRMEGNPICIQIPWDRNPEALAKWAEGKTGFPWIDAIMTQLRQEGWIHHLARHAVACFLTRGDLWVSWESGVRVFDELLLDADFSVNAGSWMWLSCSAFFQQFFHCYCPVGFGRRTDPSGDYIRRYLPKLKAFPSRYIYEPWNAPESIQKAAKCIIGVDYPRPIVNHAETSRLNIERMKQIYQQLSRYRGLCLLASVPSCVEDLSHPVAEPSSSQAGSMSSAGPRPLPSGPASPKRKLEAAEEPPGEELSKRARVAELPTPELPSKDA
Kind of test: Surface plasmon resonance, CRY2. In kind it is binding. As to conditions: SPR, His-tagged CRY2, Langmuir 1:1 model. The procedure:
We used a ProteOn XPR36 system (Bio-Rad, Hercules, CA, USA) equipped with a HTE sensor chip (high capacity tris-NTA for histidine-tagged […] capture, Bio-Rad) for surface plasmon resonance analyses. Purified target proteins (6xHis- and GST-tagged hCRY1 and hCRY2) were prepared by a baculovirus expression system (MyBioSource, San Diego, CA, USA). Phosphate buffered saline (PBS) plus 0.005% Tween 20 was used as the running buffer. The 6xHis-hCRY1 and 6xHis-hCRY2 proteins were immobilized onto separate channels of a HTE chip by injecting 210 μL protein sample (2.0 μg/mL) into flow cells (30 μL/min) to allow saturation. Serially diluted compound 2d samples (50–800 μM) were prepared in 4% DMSO in TBS-T buffer. […] Recorded resonance units (RU) were normalized and plotted against chemical concentration. […]
The EC50 values for luciferase reporter assay were calculated based on a logistic four-parametric equation using the mean values of intrinsic activation (SigmaPlot 10.0; Systat Software Inc., San Jose, CA, USA). The IC50 and t1/2 values for the cytochrome P450 inhibition assay and metabolic stability test were calculated by WinNonlin software (Pharsight, Mountain View, CA, USA). Pharmacokinetic parameters were calculated using non-compartmental analysis (WinNonlin v.8.3; Pharsight, Mountain View, CA, USA). […]
A general note: In SPR one partner is held on a chip, and binding of the other changes the refractive index at the surface.

For orientation: Kd means a measure of binding affinity in units of concentration. High values mean a looser complex, low ones a tighter complex. On to `CC(=NOCc1ccc([N+](=O)[O-])cc1)c1cccc(OCC(=O)O)c1` [Compound 2d, 2-(3-(1-(((4-nitrobenzyl)oxy)imino)ethyl)phenoxy)acetic acid], for which the Kd was 380 µM.
